Each compound was assayed against T1, hFXR (Homo sapiens, UniProt Q96RI1) (assay: In Vitro FXR Assay (TK): TK-ECRE-luc reporter in transfected CV-1 cells). Conditions: 18 hrs incubation, luminescence.
T1 construct: expressed in transfected cells; host or cells: CV-1 cells
T1 sequence (Q96RI1 1-486): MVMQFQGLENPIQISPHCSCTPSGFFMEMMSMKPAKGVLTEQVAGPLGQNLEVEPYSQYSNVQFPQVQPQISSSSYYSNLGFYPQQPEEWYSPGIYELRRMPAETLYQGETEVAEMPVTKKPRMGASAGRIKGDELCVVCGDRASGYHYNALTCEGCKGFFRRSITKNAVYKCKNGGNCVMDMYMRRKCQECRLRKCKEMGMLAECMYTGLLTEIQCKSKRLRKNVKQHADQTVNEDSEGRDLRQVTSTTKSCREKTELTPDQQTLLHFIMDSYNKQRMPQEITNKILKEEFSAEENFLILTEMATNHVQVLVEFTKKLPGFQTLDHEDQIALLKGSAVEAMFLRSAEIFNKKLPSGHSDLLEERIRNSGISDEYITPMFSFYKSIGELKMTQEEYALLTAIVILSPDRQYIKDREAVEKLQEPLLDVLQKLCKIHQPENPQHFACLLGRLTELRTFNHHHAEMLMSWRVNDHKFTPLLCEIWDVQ
T1 sequence (P19793 1-462 partner): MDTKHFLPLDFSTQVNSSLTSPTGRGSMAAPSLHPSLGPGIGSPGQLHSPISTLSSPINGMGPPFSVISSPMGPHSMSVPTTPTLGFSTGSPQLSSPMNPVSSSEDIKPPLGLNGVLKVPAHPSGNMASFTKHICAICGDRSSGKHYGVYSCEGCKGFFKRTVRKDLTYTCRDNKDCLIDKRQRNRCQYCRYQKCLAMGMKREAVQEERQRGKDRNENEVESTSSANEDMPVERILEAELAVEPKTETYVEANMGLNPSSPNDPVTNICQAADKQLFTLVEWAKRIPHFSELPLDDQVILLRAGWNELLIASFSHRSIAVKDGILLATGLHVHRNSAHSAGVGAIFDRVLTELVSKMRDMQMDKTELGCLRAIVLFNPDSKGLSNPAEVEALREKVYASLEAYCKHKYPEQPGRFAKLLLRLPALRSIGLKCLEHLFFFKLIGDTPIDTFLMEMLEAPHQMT
Type: cell-based
Method: Example B-1: In Vitro FXR Assay (TK)
CV-1 cells were seeded at a density of 2,000,000 cells in a T175 flask with DMEM+10% charcoal double-stripped FBS and incubated at 37° C. in 5% CO2 for 18 h (O/N).
After 18 h of incubation, the medium in the T175 flask was changed with fresh DMEM+10% charcoal super-stripped serum. In a polypropylene tube, 2500 μL OptiMEM (Life Technologies, Cat #31985-062) was combined with expression plasmids for hFXR, hRXR, TK-ECRE-luc and pCMX-YFP. The tube was then briefly vortexed and incubated at room temperature for 5 minutes. Transfection reagent (X-tremeGENE HP from Roche, Cat #06 366 236 001) was added to the OptiMEM/plasmid mixture vortexed and incubated at room temperature for 20 minutes. Following incubation, the transfection reagent/DNA mixture complex was added to cells in the T175 flask and the cells were incubated at 37° C. in 5% CO2 for 18 h (O/N).
Compounds were serially diluted in DMSO and added to transfected CV-1 cells. The cells were then incubated for 18 hrs. The next day cells were lysed and examined for luminescence.

Compound	EC50
COc1ccc([C@H]2CC[C@H](CN(c3cc(-c4cnn(CCF)c4)ccn3)C(=O)[C@H]3CC[C@H](OC(=O)N4CC(O)C4)CC3)CC2)cc1C [Compound 2.23, trans-4-((4-(1-(2-Fluoroethyl)-1H-pyrazol-4-yl)pyridin-2-yl) ((trans-4-(4-methoxy-3-methylphenyl)cyclohexyl)methyl)carbamoyl) cyclohexyl 3-hydroxyazetidine-1-carboxylate]	≤ 50 nM
COc1ccc([C@H]2CC[C@H](CN(c3cc(-c4coc(C(C)C)n4)ccn3)C(=O)[C@H]3CC[C@H](OC(=O)N4CC(O)C4)CC3)CC2)cc1C [Compound 2.24, trans-4-((4-(2-Isopropyloxazol-4-yl)pyridin-2-yl)(((trans)-4-(4-methoxy-3-methylphenyl)cyclohexyl)methyl)carbamoyl) cyclohexyl 3-hydroxyazetidine-1-carboxylate]	≤ 50 nM
COc1ccc([C@H]2CC[C@H](CN(c3cc(-c4coc(C(C)C)n4)ccn3)C(=O)[C@H]3CC[C@H](OC(=O)N4CCN(C)CC4)CC3)CC2)cc1C [Compound 2.25, trans-4-((4-(2-Isopropyloxazol-4-yl)pyridin-2-yl)(((trans)-4-(4-methoxy-3-methylphenyl)cyclohexyl)methyl)carbamoyl)cyclohexyl 4-methylpiperazine-1-carboxylate]	≤ 50 nM
COc1ccc([C@H]2CC[C@H](CN(c3cc(-c4coc(C(C)C)n4)ccn3)C(=O)[C@H]3CC[C@H](OC(=O)NCC(C)(C)O)CC3)CC2)cc1C [Compound 2.26, trans-4-((4-(2-Isopropyloxazol-4-yl)pyridin-2-yl)(((trans)-4-(4-methoxy-3-methylphenyl)cyclohexyl)methyl)carbamoyl)cyclohexyl (2-hydroxy-2-methylpropyl)carbamate]	≤ 50 nM
COc1ccc([C@H]2CC[C@H](CN(c3cc(-c4cnc(C5CC5)s4)ccn3)C(=O)[C@H]3CC[C@H](OC(=O)N4CCN(C)CC4)CC3)CC2)cc1C [Compound 2.27, trans-4-((4-(2-Cyclopropylthiazol-5-yl)pyridin-2-yl)(((trans)-4-(4-methoxy-3-methylphenyl)cyclohexyl)methyl)carbamoyl)cyclohexyl 4-methylpiperazine-1-carboxylate]	≤ 50 nM
COc1ccc([C@H]2CC[C@H](CN(c3cc(-c4cnn(C(C)C)c4)ccn3)C(=O)[C@H]3CC[C@H](OC(=O)NCC(C)F)CC3)CC2)cc1C (stereo partly drawn) [Compound 2.28, trans-4-((4-(1-Isopropyl-1H-pyrazol-4-yl)pyridin-2-yl)(((trans)-4-(4-methoxy-3-methylphenyl)cyclohexyl)methyl)carbamoyl) cyclohexyl(2-fluoropropyl)carbamate]	≤ 50 nM

The remaining lines, values ahead:

EC50	Compound
≤ 50 nM	COc1ccc([C@H]2CC[C@H](CN(c3cc(-c4cnn(C(C)C)c4)ccn3)C(=O)[C@H]3CC[C@H](OC(=O)NCCCF)CC3)CC2)cc1C [Compound 2.29, trans-4-((4-(1-Isopropyl-1H-pyrazol-4-yl)pyridin-2-yl)(((trans)-4-(4-methoxy-3-methylphenyl)cyclohexyl)methyl)carbamoyl) cyclohexyl(3-fluoropropyl)carbamate]
≤ 50 nM	COc1ccc([C@H]2CC[C@H](CN(c3cc(-c4cnn(C(C)C)c4)ccn3)C(=O)[C@H]3CC[C@H](OC(=O)NC[C@H](F)CO)CC3)CC2)cc1C [Compound 2.30, trans-4-((4-(1-Isopropyl-1H-pyrazol-4-yl)pyridin-2-yl)(((trans)-4-(4-methoxy-3-methylphenyl)cyclohexyl)methyl)carbamoyl) cyclohexyl((S)-2-fluoro-3-hydroxypropyl)carbamate]
≤ 50 nM	COc1ccc([C@H]2CC[C@H](CN(c3cc(-c4cnn(C(C)C)c4)ccn3)C(=O)[C@H]3CC[C@H](OC(=O)NCC(C)(F)F)CC3)CC2)cc1C [Compound 2.31, trans-4-((4-(1-Isopropyl-1H-pyrazol-4-yl)pyridin-2-yl)(((trans)-4-(4-methoxy-3-methylphenyl)cyclohexyl)methyl)carbamoyl) cyclohexyl(2,2-difluoropropyl)carbamate]
